The subject of data set [1] is MCF-7 breast cancer cells. In words: Antiproliferative activity on MCF-7 breast cancer cells (24 h, cell count or MTT). It is filed as cell-based. As to conditions: for IC50: read-out: IC50 MCF-7. The method, then: (§1) The antiproliferative activity of the synthesized compounds was evaluated using MCF-7 and ΜDA-MB-231 breast carcinoma cells. MCF-7 cells are characterized by epithelial morphology, low metastatic potential, and low aggressiveness, and are estrogen receptor alpha (ERα)-positive, whereas MDA-MB-231cells are characterized by mesenchymal morphology, high metastatic potential, and high aggressiveness, and are ERβ-positive. The cells were treated for 24 h with compounds 1–10 in a range of concentrations, from 0 to 200 or 400 μM. In addition, the cells were treated with acid 21 alone and an equimolar mixture of acid 21 and Spd (the PA substructure of conjugate 2), to determine the effect of conjugation on the antiproliferative activity. The estimated IC50 values for these compounds are provided in Table 1 (see also Supplementary Material, Table S1). For the sake of comparison, the ΙC50 values of PATs HO-416b and Agel 416, determined previously, are included in Table 1. Calculated LogD values at pH 7.4, the physiological pH of blood serum, using ChemAxon’s Chemicalize platform are also included in Table 1.
(§2) MCF-7 and MDA-MB-231 breast cancer cell lines were purchased from the American Type Culture Collection (ATCC). All cells were routinely cultured in a humidified 95% air/5% CO2 incubator at 37 °C in complete medium Dulbecco’s Modified Eagle’s Medium (DMEM) supplemented with 10% (v/v) fetal bovine serum (FBS) 1.0 mM sodium pyruvate, 2 mM l-glutamine, and 100 IU/mL penicillin. The synthesized compounds were dissolved in ddH2O (or DMSO for compound […] and the equimolar mixture of compounds […] and Spd) at a final concentration of 10 mM and further dilutions were conducted with culture medium.
(§3) MCF-7 and ΜDA-MB-231 breast cancer cells were seeded in 12-well plates and were allowed to grow up to 60–70% confluence. After renewing the culture medium, cancer cells were treated for 24 h in serum-containing culture medium with compounds 1–10 in a range of concentrations, from 0 to 200 or 400 μM. In addition, cells were treated with acid 21 alone and an equimolar mixture of acid 21 and Spd in order to determine the effect of conjugation on the antiproliferative activity. Then, the surviving breast cancer cells were measured, either manually (for compounds Agel 416, HO-416b, 1-3, 6-7) or by measuring the absorbance following an MTT assay (for compounds 4-5, 8-10, 21 and 21+Spd), as described below in detail. The percentage of live cells was plotted against the log values of compound concentrations, and a non-linear fit plot was used to estimate the IC50 value for each compound.

The subject of data set [2] is MDA-MB-231 breast cancer cells. In words: Antiproliferative activity on MDA-MB-231 breast cancer cells (24 h, cell count or MTT). It is filed as cell-based. As to conditions: for IC50: read-out: IC50 MDA-MB-231; for times less cytotoxic to the MDA-MB-231 cells than the MCF-7 cells: ratio of IC50 values. The procedure: as §1, §2, §3
Data set [3] has as its system MDA-MB-231 breast cancer cells. The note with it: 24 h treatment; ± SD; reference PATs, determined previously; cited from earlier work.
The test system of data set [4] is MCF-7 breast cancer cells. As to conditions: 24 h treatment; ± SD; reference PATs, determined previously; cited from earlier work.
A short description of a further data set: in vitro. It is filed as cell-based. The note with it: human, 24 h, MTT, read-out: % viability of MCF 12A. The procedure: (§4) The IC50 values of the tested compounds are summarized in Table 2 (see also Supplementary Material, Table S2).
(§5) […]. The chemical compounds were reconstituted in DMSO.
(§6) For the MTT [3-(4,5-dimethylthiazol-2-yl)-2,5-diphenyltetrazolium bromide] assay, cells were seeded in a 96-well plate (26.000 cells/well) for 48 h. Then, after overnight starvation through serum deprivation, cells were incubated for 24 h, with the chemical compounds at 100, 10, 1, and 0.1 μM concentrations in the MCF-12A culture medium deprived of serum. Next, MTT (5 mg/mL in sterile PBS) was added in an amount of 10% in the culture media volume for 4-h cell incubation at 37 °C. Subsequently, an MTT solubilization solution was added, in an amount equal to the original culture media volume (100 μL/well), and the formazan crystals were dissolved through thorough pipetting. The spectrophotometric measure of cells’ viability was performed in a Tecan (SPARK) spectrophotometer at an absorbance wavelength of 570 nm. Incubation with H2O2 was established as cytotoxicity positive control. The percentage of viability for each sample was calculated with respect to cells incubated with MCF-12A culture media (without serum) containing 2% DMSO (negative cytotoxicity control).

Data set [5] deals with MCF-12A normal epithelial mammary cells. In words: cells. The note with it: for IC50: Homo sapiens, MCF-12A, 24 h incubation, serum-free medium, MTT; for selectivity index (SI) for the MCF-7 cells: IC50 MCF-12A versus IC50 MCF-7; for selectivity index (SI) for the MDA-MB-231 cells: IC50 MCF-12A versus IC50 MDA-MB-231. In kind it is cell-based. The method, then: as §4, §5, §6

[6] abbreviates: Homo sapiens, MCF7, 24 h, 24 h treatment, serum-containing medium, manual count (1-3, 6-7) or MTT (4-5, 8-10, 21, 21+Spd), ± SD, tested as trifluoroacetate salts.
The mark [7] stands for this setting: Homo sapiens, MDA-MB-231, 24 h, 24 h treatment, serum-containing medium, manual count (1-3, 6-7) or MTT (4-5, 8-10, 21, 21+Spd), ± SD, tested as trifluoroacetate salts.
Setting [8] is: 24 h treatment, serum-containing medium, manual count (1-3, 6-7) or MTT (4-5, 8-10, 21, 21+Spd), ± SD, tested as trifluoroacetate salts.

These results are taken from publication PMC8777946, “New Analogs of Polyamine Toxins from Spiders and Wasps: Liquid Phase Fragment Synthesis and Evaluation of Antiproliferative Activity” (Molecules, 2022).

Where two headings read alike, the source gives them in different places.

Take `CCCC(=O)N[C@H](C(=O)NCCCCNCCCNCCCN)[C@@H](C)O` [Compound 4]: the IC50 in data set [1] (setting [6]) and in data set [2] (setting [7]) was above 400 µM each time.

In the case of `NCCCNCCCCNCCCNC(=O)Cc1c[nH]c2ccccc12` [Compound 1], the IC50 in data set [1] (setting [6]) and in data set [2] (setting [7]) was above 200 µM each time.

Turning to `O=C(O)Cc1c[nH]c2ccccc12` [Compound 21, (indol-3-yl)acetic acid, reference compound], the values for the IC50 in data set [1] (setting [6]) and in data set [2] (setting [7]) were 366 ± 73 µM and 262 ± 42 µM, respectively.

Regarding `NCCCNCCCNCCCNCCCCNC(=O)Cc1c[nH]c2ccccc12` [HO-416b], the values for the IC50 in data set [3], in data set [4] and in data set [5] were 3.98 ± 0.064 µM, 0.09 ± 0.012 µM and 97.2 µM, respectively. Moreover, the “times more cytotoxic than Agel 416” value in data set [1] (MCF-7 cells) is on record as around 6 times; in data set [5] (MCF-12A cells), around 1.9 times. Moreover, the “times less cytotoxic to the MDA-MB-231 cells than the MCF-7 cells” value in data set [2] is around 44 times. The viability – broadly, the share of living cells, or the viability signal relative to a control – stood at 92.5% in “in vitro” (0.1 μΜ), 89.7% in the data set “in vitro” (1 μΜ), 77.5% in the data set “in vitro” (10 μΜ) and 50.8% in “in vitro” (100 μΜ). For the same compound, the “selectivity index (SI) for the MCF-7 cells” value in data set [5] is around 1080. In addition, in data set [5], the “selectivity index (SI) for the MDA-MB-231 cells” value was around 24.

With `C#CC[C@H](NC(=O)c1ccc(C2(C(F)(F)F)N=N2)cc1)C(=O)NCCCNCCCNCCCCN` [Compound 10], the results for the IC50 in data set [1] (setting [6]) and in data set [2] (setting [7]) were 2.81 ± 1.64 µM and above 200 µM, respectively.

As to `NCCCCNC(=O)Cc1c[nH]c2ccccc12` [Compound 3], the IC50 (usually the concentration that inhibits the measured activity by half) in data set [1] (setting [8]) worked out at 272 ± 11.2 µM; in data set [1] (setting [6]) it was 272 µM; in data set [2] (setting [8]), 107 µM; in data set [2] (setting [7]), 170 µM.

With `CCCC(=O)N[C@@H](Cc1ccc(O)cc1)C(=O)NCCCNCCCCNCCCN` [Compound 6], the IC50 in data set [1] (Homo sapiens, MCF7, 24 h) was above 400 µM; in data set [2] (Homo sapiens, MDA-MB-231, 24 h), above 400 µM.

For `CCCC(=O)N[C@@H](Cc1ccc(O)cc1)C(=O)NCCCCNCCCNCCCNCCCN` [Compound 8], the IC50 in data set [1] (setting [6]) and in data set [2] (setting [7]) was above 400 µM throughout.

Turning to `NCCCNCCCCNC(=O)Cc1c[nH]c2ccccc12` [Compound 2], the figures for the IC50 in data set [1] (setting [6]) and in data set [2] (setting [7]) were 3.15 ± 0.25 µM and 12.6 ± 0.57 µM, respectively. Also, the figures for the “times less active than HO-416b” value in data set [1] (MCF-7 cells) and in data set [2] (MDA-MB-231 cells) were 35 times and 4 times, respectively. Also, the “times more active than the mere combination of 21 and Spd” value in data set [1] (MCF-7 cells) is given as around 42 times; in data set [2] (MDA-MB-231 cells) it was around 22 times.

As to `C#CC[C@H](NC(=O)c1ccc(C2(C(F)(F)F)N=N2)cc1)C(=O)NCCCCNCCCNCCCN` [Compound 9], the IC50 in data set [1] (setting [6]) is 2.63 ± 1.58 µM; in data set [2] (setting [7]) it was above 200 µM.

Take `CCCC(=O)N[C@@H](Cc1ccc(O)cc1)C(=O)NCCCCNCCCCNCCCCN` [Compound 7]: the IC50 in data set [1] (setting [6]) and in data set [2] (setting [7]) was above 400 µM throughout.

`NCCCNCCCCNCCCNCCCNC(=O)Cc1c[nH]c2ccccc12` [Agel 416]: the IC50 in data set [3] was 3.31 ± 0.08 µM; in data set [4] it was 0.55 ± 0.02 µM; in data set [5], 184 µM. In data set [2], the “times less cytotoxic to the MDA-MB-231 cells than the MCF-7 cells” value is 6 times. In addition, the viability was 95.4% in “in vitro” (0.1 μΜ), 84.3% in “in vitro” (1 μΜ), 63.5% in the data set “in vitro” (10 μΜ) and 69% in the data set “in vitro” (100 μΜ). For the same compound, the “selectivity index (SI) for the MCF-7 cells” value in data set [5] is recorded as around 335. For the same compound, the “selectivity index (SI) for the MDA-MB-231 cells” value in data set [5] is listed as around 56.

With `CCCC(=O)N[C@H](C(=O)NCCCNCCCCNCCCN)[C@@H](C)O` [Compound 5], the IC50 in data set [1] (setting [6]) and in data set [2] (setting [7]) was above 400 µM in each case.
